Laboratory results: ChEMBL document CHEMBL3046031, “Comparison of Acaricidal, Insecticidal, and Nerve Activities of Halfenprox (MTI-732) and Related Compounds” (1996)
Active and inactive are the calls of the source. No cut-off for these calls is given here.

What was measured:
Type in all cases: functional
[1] = test system: Nerve cord; assay: Induction of repetitive firing in excised nerve cord of Periplaneta americana (American cockroach) measured up to 32 min
[2] = test system: Tetranychus urticae; assay: Acaricidal activity against Tetranychus urticae (two-spotted spider mite) infested kidney bean leaf disk assessed as mortality measured after 48 hr
[3] = test system: Procambarus clarkii; assay: Induction of depolarization in Procambarus clarkii (crayfish) giant axons assessed as transient inward sodium currents at -100 to -20 mV holding potential at 2 x 10 '-5 M
[4] = test system: Periplaneta americana; assay: Insecticidal activity against Periplaneta americana (American cockroach) assessed as paralysis/mortality compound injected into abdomen after 24 hr
[5] = test system: Spodoptera litura; assay: Insecticidal activity against third-instar larvae of Spodoptera litura infested compound-treated cabbage leaf assessed as mortality after 48 hr in presence of piperonyl butoxide
[6] = test system: Spodoptera litura; assay: Insecticidal activity against third-instar larvae of Spodoptera litura infested compound-treated cabbage leaf assessed as mortality after 48 hr
[7] = test system: Tetranychus urticae; assay: Ratio of etofenprox LC50 to compound LC50 for Tetranychus urticae (two-spotted spider mite) infested kidney bean leaf disk

SMILES | log(1/MEC) [1] | log(1/LC50) [2] | Activity [3] | log(1/MLD) [4] | log(1/MLD) [5] | log(1/LC50) [6] | RatioLC50 [7]
CC(C)(COCc1cccc(Oc2ccccc2)c1)c1ccc(OC(F)(F)Br)cc1 [halfenprox] | 6.57 | 5.77 | Active | 9.67 | 9.77 | 4.83 | 200
CC(C)(COCc1cccc(Oc2ccccc2)c1)c1ccc(OC(F)F)cc1 | 7.73 | 3.75 | Active | 9.03 | 9.52 | 4.7 | 
CC(C)(COCc1cccc(Oc2ccccc2)c1)c1ccc(OC(F)(F)F)cc1 | 7.45 | 5.14 | Active | 9.64 | 9.75 | 5.36 | 
CC(C)(COCc1cccc(Oc2ccccc2)c1)c1ccc(OC(F)(F)Cl)cc1 | 6.14 | 5.34 | Active | 9.55 | 9.75 | 4.96 | 
CCOc1ccc(C(C)(C)COCc2cccc(Oc3ccccc3)c2)cc1 [ETOFENPROX] | 8 | 3.48 | Active | 9.49 | 9.79 | 4.68 | 
